Structures are written as SMILES. Active and inactive are the calls of the source.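 How the source made its calls: active means compounds giving half or more protection of infected cells from virus-caused growth loss, again on retest; inactive means the rest.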 Where a SMILES comes first, the peptide text is derived from it. [ ]: non-standard residue; d: D form. The star is where a group is joined. Ac5c = NC1(C(=O)O)CCCC1; Boc = CC(C)(C)OC(=O)*; tBu = CC(C)(C)*

The test has as its system CEM cells HIV-1 protection, formazan growth assay. In words: NCI AIDS Antiviral Assay. As to conditions: for IC50: measured here: growth of uninfected CEM cells. The method, boiled down:
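CEM (human) cells, HIV-1 infected vs uninfected, 5-point dosing, formazan growth read-out. Retest threshold 50% protection.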

For the compound `OCC(c1ccccc1)[P+](c1ccccc1)(c1ccccc1)c1ccccc1` (configuration not stated), the EC50 was greater than 200 µM and the IC50 came out at 11.2 µM. For the compound `O=C1CC(c2ccco2)C2(C(=O)NC(=O)NC2=O)C(c2ccco2)C1` (configuration not stated), the EC50 is greater than 200 µM and the IC50 is greater than 200 µM.

Regarding `CNC(=O)N1N[C@H](c2ccccc2)[C@@H]1c1ccccc1`, the EC50 is greater than 200 µM and the IC50 was 42.7 µM. As to `COc1ccc(C(=O)/C=C/c2ccc(OCCCCCCCCCCOc3ccc(/C=C/C(=O)c4ccc(OC)cc4)cc3)cc2)cc1`, the EC50 was greater than 200 µM and the IC50 was greater than 200 µM. Consider `CN(C)C12C=CC=CC3=C(c4ccccc4)C(c4ccccc4)=C(c4ccccc4)C31c1ccccc1C2` (configuration not stated), for which the EC50 is greater than 200 µM and the IC50 was greater than 200 µM. On to `CN(C(=O)C12C3C4C1C1C2C3C41C(=O)O)C(C)(C)C` (configuration not stated), for which the result was inactive. Turning to `C=C(C)C(CC=C(C)C)Cc1c(O)cc(OC)c2c1OC(c1ccc(O)cc1O)C(O)C2=O` (configuration not stated), the EC50 was greater than 200 µM and the IC50 came to 29.5 µM. `O=C1CN(CCO)CC(=O)N2Cc3ccccc3CN12`: the result was inactive. Take `CCCCN(C=O)CCc1ccccc1`: the EC50 is greater than 1230 µM and the IC50 is greater than 1230 µM.

Turning to `CCOc1ccc(OCC(=O)O)c2c1CCCC2=O`, the outcome was inactive. `C[C@]12CC/C(=N/O)C(O)=C1CC[C@@H]1C2CC[C@]2(C)NC(=O)CCC12` (some centres not stated): the EC50 was greater than 282 µM and the IC50 was found to be 132 µM.

Turning to `NC(Cc1ccc(O)c(O)c1)P(=O)(O)O` (configuration not stated), the EC50 was greater than 200 µM and the IC50 worked out at 24.5 µM.

In the case of `Cn1nc2ccc3nccc(NCCNCCO)c3c2n1`, the EC50 was greater than 871 µM and the IC50 is 3.89 µM.

For the compound `O=C1/C(=C/c2cccc(Br)c2)CCc2ccccc21`, the EC50 was greater than 200 µM and the IC50 turned out to be 7.24 µM. For the compound `O=C1CSC(=S)N1c1ccc(Cl)cc1`, the EC50 is greater than 148 µM and the IC50 came out at 56.2 µM. The like results for `c1cc(-c2ncc3ccncc3n2)ccn1` were, in that order, greater than 64.6 µM and greater than 64.6 µM. Take `CCOC(=O)c1cc2c(OCc3ccccc3)c(OC)cc3c2c(n1)N(c1ccc(OC)cc1)C(C)C3` (configuration not stated): the EC50 is greater than 10.5 µM and the IC50 is greater than 10.5 µM. On to `O=[N+]([O-])O[C@H]1CO[C@H]2[C@@H]1OC[C@H]2O[N+](=O)[O-]`, for which the EC50 is greater than 200 µM and the IC50 is greater than 200 µM. On to `COCCOCCOCCOCCOCCOCCOCCOCCOCCOCCOCCOCCOCCOCCOCCOCCOCC(=O)N(CCn1ccc(N)nc1=O)CCn1cnc2nc(N)[nH]c(=O)c21`, for which the EC50 is greater than 117 µM and the IC50 was greater than 117 µM.

Take `C=CC1C2=C(C(=O)NCC2)C2OC(O)C3=C(CCNC3=O)C2C1C` (configuration not stated): the outcome was inactive. On to `Cc1cc(C#N)c(Nc2ccccc2[N+](=O)[O-])s1`, for which the EC50 was greater than 200 µM and the IC50 amounted to 42.7 µM. Take `S=C(NN1CCOCC1)SSC(=S)NN1CCOCC1`: the EC50 is greater than 20 µM and the IC50 amounted to 0.933 µM. The like results for `CCOC(C[C@H](O)[C@H]1COC(=S)S1)OCC` were, in that order, 135 µM and greater than 200 µM. With `CCN1C(NN)=NS(=O)(=O)c2ccccc21`, the EC50 is greater than 200 µM and the IC50 is greater than 200 µM.

As to `OCC1(CO)CCC1(CO)CO`, the outcome was inactive. As for `CC1(Br)C(=O)NC(=O)N(C2C=CC(CO)O2)C1O` (configuration not stated), the EC50 was greater than 200 µM and the IC50 was greater than 200 µM. Regarding `CC1=C(C(=O)CC(=O)C(=O)Nc2ccc(Cl)cc2C)Sc2ccccc2N1`, the EC50 was greater than 117 µM and the IC50 was greater than 117 µM. In the case of `O=C(Cc1ccccc1)NN1C(=O)/C(=C\c2cccc(O)c2)SC1=Nc1ccccc1`, the EC50 was greater than 158 µM and the IC50 stood at 102 µM. The like results for `C(=N\Nc1nnc2c(n1)[nH]c1ccccc12)/c1ccccc1` were, in that order, greater than 200 µM and greater than 200 µM. `CC(=O)NNC(=O)c1ccccc1O`: the EC50 was greater than 200 µM and the IC50 turned out to be 29.5 µM. `Clc1ccccc1C(n1cc(Br)cn1)n1cc(Br)cn1`: the outcome was inactive. For the compound `CC1=CC(O)C(C(O)(C(F)(F)F)C(F)(F)F)C(C)(C)C1` (configuration not stated), the EC50 was greater than 200 µM and the IC50 was found to be 178 µM. The like results for `CC(=O)NC(C)(C)C1CCC(C)CC1` (configuration not stated) were, in that order, greater than 200 µM and greater than 200 µM. `Cc1c2c(cc3c1OCN(Cc1ccccc1)C3)CN(Cc1ccccc1)CO2`: the EC50 is greater than 200 µM and the half-maximal inhibitory concentration (IC50) is 30.9 µM. As to `CCOC(=O)/C(C#N)=C/c1ccc2c(-c3c(OCC)ccc4cc(/C=C(\C#N)C(=O)OCC)ccc34)c(OCC)ccc2c1`, the EC50 was greater than 200 µM and the IC50 is greater than 200 µM. Consider `CC1=NN(c2ccccc2)C(=O)/C1=C\N1CC(=O)NC1=S`, for which the EC50 is greater than 200 µM and the IC50 came to 87.1 µM. Turning to `C=C1CCC23CC(CC[C@@H]2[C@@]12C[C@@H](c1ccoc1)OC2=O)OC3=O` (some centres not stated), the EC50 is greater than 79.4 µM and the IC50 is greater than 79.4 µM. Regarding `CC(OC(C)(C)C)C1NC(=O)C(CCCCNC(=O)OC(C)(C)C)NC(=O)C(Cc2c[nH]c3ccccc23)NC(=O)C(Cc2ccccc2)NC(=O)C2(CCCC2)NC(=O)C(Cc2ccccc2)NC1=O` (configuration not stated) (cyclo([Ac5c]FWK(Boc)T(tBu)F); configuration not given here), the EC50 was greater than 100 µM and the concentration for half-maximal inhibition (IC50) stood at 18.6 µM. As to `Cc1cn(C2CCC(/C=N\O)O2)c(=O)[nH]c1=O` (configuration not stated), the EC50 was greater than 200 µM and the IC50 was greater than 200 µM. For the compound `CN1C(=O)/C(=C2\SC(=O)N(CN3CCOCC3)C2=O)c2cc(Br)ccc21`, the EC50 is greater than 200 µM and the IC50 came to 26.3 µM. Regarding `C(/COc1cccnc1)=N\NC1=NCCN1`, the EC50 is greater than 832 µM and the IC50 turned out to be 186 µM.

Turning to `c1ccc(C2COC(c3ccc4c(c3)OCO4)O2)cc1` (configuration not stated), the EC50 was greater than 200 µM and the IC50 stood at 162 µM. With `O=C(Nc1ccc(Cl)c(Cl)c1)OCn1ncc2ccc([N+](=O)[O-])cc21`, the EC50 was greater than 200 µM and the IC50 was 132 µM.

As to `COc1ccc2c(c1OC)C1=NCCc3c(OC)c(OC)c(OC)c-2c31`, the result was inactive. As for `Cc1cc(C)nc(NS(=O)(=O)c2ccc(N=c3c4ccccc4n(-c4ccccc4)c4ccccc34)cc2)n1`, the outcome was inactive. In the case of `COC(=O)Cc1c2n(c3ccccc13)C(=O)N1c3ccccc3C(CC(=O)OC)C21` (configuration not stated), the EC50 was greater than 200 µM and the IC50 is greater than 200 µM. Consider `Fc1ccc(NC(=S)N/N=C\c2c(Cl)cccc2Cl)cc1`, for which the EC50 is greater than 275 µM and the IC50 is greater than 275 µM. Consider `CCCCCCC(C)CCCCCCCCCCC(=O)OCC(COP(=O)([O-])OCC[N+](C)(C)C)OC(=O)CCCCCCCCCCC(C)CCCCCC` (configuration not stated), for which the outcome was inactive.

Turning to `COC(=O)C1C2CC3C(OC(=O)C31)C2I` (configuration not stated), the result was inactive. For the compound `Cc1nc2c(Br)cc(Br)cc2c(=O)n1-c1ccccc1N`, the EC50 is greater than 200 µM and the IC50 amounted to 67.6 µM.

As for `CC1(C)Oc2ncnc(N)c2C1c1ccccc1` (configuration not stated), the EC50 is greater than 1020 µM and the IC50 stood at 457 µM. The like results for `CC(=O)NNC(=S)N/C=C/c1c(C)ccc([N+](=O)[O-])c1[N+](=O)[O-]` were, in that order, greater than 200 µM and 41.7 µM. Regarding `S=C(N1CCN(c2cccc(Cl)c2)CC1)N1CCN(c2cccc(Cl)c2)CC1`, the EC50 was greater than 200 µM and the IC50 was 72.4 µM. On to `COc1cc2c(cc1OC)[C@H]1C(=O)c3cc4c(cc3[C@H]1N(C)C2=O)OCO4`, for which the EC50 was greater than 37.2 µM and the IC50 came to 0.479 µM.

Take `Cc1cccc2c1Sc1ccccc1C2NC(=O)CCN(C)C` (configuration not stated): the EC50 is greater than 550 µM and the IC50 came out at 31.6 µM.

Turning to `COC(CN(C(=O)c1ccccc1)C1CCC2(SCCS2)c2[nH]c3ccccc3c21)OC` (configuration not stated), the EC50 is greater than 200 µM and the IC50 is 14.5 µM. `c1ccc(COc2cccc3cccnc23)cc1`: the EC50 is greater than 251 µM and the IC50 came out at 110 µM. On to `C/C=C(\CCC1NCCc2c1[nH]c1ccccc21)[Si](C)(C)C` (configuration not stated), for which the result was inactive.

Regarding `c1ccc2c(c1)[nH]c1c3ccccc3sc21`, the EC50 was greater than 200 µM and the IC50 was greater than 200 µM.

For `COc1ccc(C(=O)/C=C/c2ccc(OCC(=N)N)cc2)cc1`, the EC50 is greater than 200 µM and the IC50 came to 9.77 µM.

In the case of `Brc1cc2c(cc1C1SCCS1)OCO2`, the EC50 is greater than 107 µM and the IC50 came to 60.3 µM. With `CCOC(=O)c1[nH]c(-c2[nH]c(-c3[nH]c(-c4[nH]c(C(=O)OCC)c(C)c4C(=O)OCC)c(C(=O)OCC)c3C)c(C)c2C(=O)OCC)c(C(=O)OCC)c1C`, the EC50 is greater than 200 µM and the IC50 is greater than 200 µM. As to `CC(C)(Oc1ccc(C(=O)c2ccc(Cl)cc2)cc1Cl)C(=O)N1CCN(c2ccccc2)CC1`, the EC50 was greater than 20 µM and the IC50 was greater than 20 µM.

On to `c1ccc2c(c1)CC1c3[nH]c4ccccc4c3CCN21` (configuration not stated), for which the EC50 is greater than 200 µM and the IC50 is 55 µM. In the case of `COc1cc2c(c(OC)c1OC)C(=O)C1C2N1C(=O)CCCCl` (configuration not stated), the EC50 is greater than 200 µM and the IC50 was greater than 200 µM. Turning to `CC1C2=C(C(=O)N1Cc1ccccc1)C(C1OC(COC(=O)c3ccccc3)C(OC(=O)c3ccccc3)C1OC(=O)c1ccccc1)C(=O)N(C)C2=O` (configuration not stated), the EC50 is greater than 7.24 µM and the IC50 is greater than 7.24 µM. Consider `CC(=O)Oc1ccc2c3c4nc5ccccc5nc4cc(OC(C)=O)c3n(C)c2c1`, for which the EC50 was greater than 5.01 µM and the IC50 is greater than 5.01 µM. In the case of `O/N=C/c1ccc(O)c(O)c1`, the EC50 was greater than 1620 µM and the IC50 stood at 87.1 µM.

As for `Cc1ccc2c(c1)[nH]c(=S)n2/C=C(/C#N)c1ccc([N+](=O)[O-])cc1`, the EC50 was greater than 200 µM and the IC50 is greater than 200 µM. For `CC1(Br)Cc2ccccc2C1=O` (configuration not stated), the result was inactive. With `O=S1(=O)c2ccccc2C(c2ccccc2)(c2ccccc2)N1c1ccccc1`, the EC50 was greater than 75.9 µM and the IC50 stood at 55 µM. As for `CSC[C@H](NC(=O)COc1cccc2cnccc12)C(=O)NC(Cc1ccccc1)C(O)C(=O)N1CSC[C@H]1C(=O)NC(C)(C)C` (some centres not stated), the EC50 was 0.0513 µM and the IC50 was determined as 10 µM.

The values are drawn from PubChem BioAssay AID179 (DTP/NCI, 2004).
